Source: ChEMBL document CHEMBL6134890, “Terminally Symmetric β-Turn Peptides for Multidrug-Resistant Bacterial Infections” (J Med Chem, 2025)
Values after ≈ are worked out from the molar mass of the structure shown. Active and inactive are the calls of the source. No cut-off for these calls is given here. Peptide text beside a SMILES is read from it.

What was measured:
Staphylococcus aureus [1] = assay: Antimicrobial activity against Staphylococcus aureus ATCC 25923 assessed as reduction in bacterial growth by broth dilution method; assay type: functional
Escherichia coli [2] = assay: Antimicrobial activity against multi-drug resistant Escherichia coli assessed as reduction in bacterial growth measured after 6 hrs in 25% plasma; assay type: functional, organism-based
Staphylococcus aureus [3] = assay: Additive antimicrobial activity against multi-drug resistant Staphylococcus aureus assessed as fractional inhibition concentration index in presence levofloxacin by microplate reader analysis; assay type: functional
Escherichia coli [4] = assay: Antimicrobial activity against multi-drug resistant Escherichia coli assessed as reduction in bacterial growth in presence of MgCl2; assay type: functional, organism-based
Escherichia coli [5] = assay: Antimicrobial activity against Escherichia coli ATCC 25922 assessed as reduction in bacterial growth by broth dilution method; assay type: functional
Escherichia coli [6] = assay: Antibiofilm activity against multi-drug resistant Escherichia coli at 0.5 times MIC measured after 24 hrs by crystal violet staining based analysis; assay type: functional, organism-based
Staphylococcus aureus [7] = assay: Antimicrobial activity against multi-drug resistant Staphylococcus aureus assessed as reduction in bacterial growth measured after 6 hrs in 25% plasma; assay type: functional, organism-based
Staphylococcus aureus [8] = assay: Antimicrobial activity against multi-drug resistant Staphylococcus aureus assessed as reduction in bacterial growth in presence of FeCl3; assay type: functional, organism-based
Cell membrane [9] = assay: Disruption of cell membrane in multi-drug resistant Escherichia coli assessed as appearance of ruptured cell membrane at 2 times MIC measured for 120 mins by transmission electron microscopy analysis; assay type: subcellular
Staphylococcus aureus [10] = assay: Antimicrobial activity against multi-drug resistant Staphylococcus aureus assessed as reduction in bacterial growth in presence of NaCl; assay type: functional, organism-based
Escherichia coli [11] = assay: Bactericidal activity against multi-drug resistant Escherichia coli assessed as eradication of bacterial growth at 2 times MIC measured after 3 hrs by time-kill kinetic assay relative to control; assay type: functional
Escherichia coli [12] = assay: Antibacterial activity against multidrug resistant Escherichia coli infected in male Kunming mouse model assessed as wound healing measured after 11 days in presence of levofloxacin by caliper method relative to control; assay type: functional; settings: time 11 day
Staphylococcus aureus [13] = assay: Antimicrobial activity against multi-drug resistant Staphylococcus aureus assessed as reduction in bacterial growth in presence of KCl; assay type: functional, organism-based
Cell membrane [14] = assay: Induction of outer membrane permeabilization in multi-drug resistant Escherichia coli assessed as NPN uptake at 1 to 4 times MIC measured within 1 min by fluorescence based analysis; assay type: subcellular
BEAS-2B = assay: Cytotoxicity against human BEAS-2B cells at 2 to 256 uM measured after 24 hrs by CCK-8 method; assay type: toxicity, cell-based; settings: dose 2-256 µM
Staphylococcus aureus [15] = assay: Antibiofilm activity against multi-drug resistant Staphylococcus aureus measured after 24 hrs by crystal violet staining based analysis; assay type: functional, organism-based
Escherichia coli [16] = assay: Antimicrobial activity against multi-drug resistant Escherichia coli assessed as reduction in bacterial growth by broth dilution method; assay type: functional
Escherichia coli [17] = assay: Antibacterial activity against multidrug resistant Escherichia coli infected in male Kunming mouse model assessed as reduction in wound size measured after 3 to 5 days by caliper method; assay type: functional, organism-based; settings: time 3-5 day
Escherichia coli [18] = assay: Antibacterial activity against multidrug resistant Escherichia coli infected in male Kunming mouse model assessed as reduction in inflammatory cell infiltration in presence of levofloxacin by H and E staining based analysis; assay type: functional, organism-based
Escherichia coli [19] = assay: Bactericidal activity against multi-drug resistant Escherichia coli at 1 times MIC preincubated with LPS for 1 hrs followed by bacterial addition and measured after 18 hrs by microplate reader based analysis; assay type: functional, organism-based; settings: time 19.0 hrs
Cell membrane [20] = assay: Disruption of cell membrane in multi-drug resistant Staphylococcus aureus assessed as release of cell content at 2 times MIC measured for 120 mins by transmission electron microscopy analysis; assay type: subcellular
Staphylococcus aureus [21] = assay: Antibiofilm activity in methicillin-resistant Staphylococcus aureus assessed as eradication of formed biofilm by measuring reduction in viable bacterial count measured after 12 hrs by confocal microscopy based analysis; assay type: functional, organism-based
Cell membrane [22] = assay: Disruption of cell membrane in multi-drug resistant Escherichia coli assessed as appearance of cell shrinkage at 2 times MIC measured for 120 mins by transmission electron microscopy analysis; assay type: subcellular
Acinetobacter baumannii = assay: Antimicrobial activity against multi-drug resistant Acinetobacter baumannii assessed as reduction in bacterial growth by broth dilution method; assay type: functional
Escherichia coli [23] = assay: Antibacterial activity against multidrug resistant Escherichia coli infected in male Kunming mouse model assessed as scabs thickening measured after 7 days in presence of levofloxacin by caliper method; assay type: functional, organism-based; settings: time 7.0 day
Escherichia coli [24] = assay: Antibacterial activity against multidrug resistant Escherichia coli infected in male Kunming mouse model assessed as recovery of mouse weight measured after 11 days; assay type: functional, organism-based; settings: time 11.0 day
HEK-293T = assay: Cytotoxicity against HEK293T cells at 2 to 256 uM measured after 24 hrs by CCK-8 method; assay type: toxicity, cell-based; settings: human, dose 2-256 µM
Enterococcus faecalis = assay: Antimicrobial activity against multi-drug resistant Enterococcus faecalis assessed as reduction in bacterial growth by broth dilution method; assay type: functional
Escherichia coli [25] = assay: Antibacterial activity against multidrug resistant Escherichia coli infected in male Kunming mouse model assessed as reduction in tissue hemorrhage in presence of levofloxacin by H and E staining based analysis; assay type: functional, organism-based
Escherichia coli [26] = assay: Antibiofilm activity in […] assessed as eradication of formed biofilm by measuring reduction in viable bacterial count measured after 12 hrs by confocal microscopy based analysis; assay type: functional, organism-based
Staphylococcus aureus [27] = assay: Bactericidal activity against multi-drug resistant Staphylococcus aureus assessed as eradication of bacterial growth at 2 times MIC measured after 3 hrs by time-kill kinetic assay relative to control; assay type: functional
Klebsiella pneumoniae = assay: Antimicrobial activity against multi-drug resistant Klebsiella pneumoniae assessed as reduction in bacterial growth by broth dilution method; assay type: functional
Staphylococcus aureus [28] = assay: Bactericidal activity against multi-drug resistant Staphylococcus aureus assessed as eradication of bacterial growth at 2 times MIC by time-kill kinetic assay; assay type: functional, organism-based; settings: time 120-720 min
Escherichia coli [29] = assay: Antibacterial activity against Escherichia coli […] at sub-inhibitory concentration measured after 15 passages for 18 hrs; assay type: functional, organism-based
Staphylococcus aureus [30] = assay: Antimicrobial activity against multi-drug resistant Staphylococcus aureus assessed as reduction in bacterial growth at 2 times MIC measured after 1 hrs in presence of trypsin by microplate reader based analysis; assay type: functional, organism-based
Escherichia coli [31] = assay: Antibacterial activity against multidrug resistant Escherichia coli infected in male Kunming mouse model assessed as reduction in epidermal thickening in presence of levofloxacin by H and E staining based analysis; assay type: functional, organism-based
Staphylococcus aureus [32] = assay: Antibacterial activity against Staphylococcus aureus ATCC 25923 at sub-inhibitory concentration measured after 15 passages for 18 hrs; assay type: functional
Escherichia coli [33] = assay: Antimicrobial activity against multi-drug resistant Escherichia coli assessed as reduction in bacterial growth in presence of FeCl3; assay type: functional, organism-based
Escherichia coli [34] = assay: Antimicrobial activity against multi-drug resistant Escherichia coli assessed as reduction in bacterial growth in presence of NaCl; assay type: functional, organism-based
Cell membrane [35] = assay: Disruption of cell membrane in multi-drug resistant Staphylococcus aureus assessed as stomatal formation at 2 times MIC measured for 120 mins by transmission electron microscopy analysis; assay type: subcellular
Cell membrane [36] = assay: Induction of cytoplasmic membrane depolarization in multi-drug resistant Staphylococcus aureus at 1 to 4 times MIC measured within 1 min by DiSC3-5 fluorescent dye based analysis
Escherichia coli [37] = assay: Antimicrobial activity against multi-drug resistant Escherichia coli assessed as reduction in bacterial growth in presence of KCl; assay type: functional, organism-based
Staphylococcus aureus [38] = assay: Antimicrobial activity against multi-drug resistant Staphylococcus aureus assessed as reduction in bacterial growth by broth dilution method; assay type: functional
Cell membrane [39] = assay: Disruption of cell membrane in multi-drug resistant Staphylococcus aureus assessed as increase in red fluorescence intensity of PI at 2 times MIC measured for 2 hrs by fluorescence confocal microscopic imaging based analysis; assay type: subcellular

CC[C@H](C)[C@H](NC(=O)[C@H](CCCCN)NC(=O)[C@@H](NC(=O)[C@H](CCCCN)NC(=O)[C@@H]1CCCN1C(=O)[C@H](Cc1c[nH]c2ccccc12)NC(=O)[C@H](Cc1c[nH]c2ccccc12)NC(=O)[C@H](Cc1c[nH]c2ccccc12)NC(=O)[C@@H]1CCCN1C(=O)[C@H](CCCCN)NC(=O)[C@@H](NC(=O)[C@H](CCCCN)NC(=O)[C@@H](NC(=O)[C@@H](N)CCCCN)[C@@H](C)CC)[C@@H](C)CC)[C@@H](C)CC)C(=O)N[C@@H](CCCCN)C(N)=O (H-KIKIKPWWWPKIKIK-NH2)
MIC (Staphylococcus aureus [1]): 8 µM (≈ 15.9 µg/mL)
Activity (Escherichia coli [2]): Active
fractional inhibitory concentration index (FICI) (Staphylococcus aureus [3]): 0.75
Activity (Escherichia coli [4]): Active
MIC (Escherichia coli [5]): 4 µM (≈ 7.97 µg/mL)
Activity (Escherichia coli [6]): Active
Activity (Staphylococcus aureus [7]): Active
Activity (Staphylococcus aureus [8]): Active
Activity (Cell membrane [9]): Active
Activity (Staphylococcus aureus [10]): Active
Activity (Escherichia coli [11]): 100%
Activity (Escherichia coli [12]): 100%
Activity (Staphylococcus aureus [13]): Active
Activity (Cell membrane [14]): Active
Activity (BEAS-2B): Toxic
Activity (Staphylococcus aureus [15]): Dose-dependent-effect
MIC (Escherichia coli [16]): 4 µM (≈ 7.97 µg/mL)
Activity (Escherichia coli [17]): Active
Activity (Escherichia coli [18]): Active
Activity (Escherichia coli [19]): inactive
Activity (Cell membrane [20]): Active
Activity (Staphylococcus aureus [21]): Dose-dependent-effect
Activity (Cell membrane [22]): Active
MIC (Acinetobacter baumannii): 4 µM (≈ 7.97 µg/mL)
Activity (Escherichia coli [23]): Active
Activity (Escherichia coli [24]): Active
Activity (HEK-293T): Toxic
MIC (Enterococcus faecalis): 4 µM (≈ 7.97 µg/mL)
Activity (Escherichia coli [25]): Active
Activity (Escherichia coli [26]): Dose-dependent-effect
Activity (Staphylococcus aureus [27]): 100%
MIC (Klebsiella pneumoniae): 4 µM (≈ 7.97 µg/mL)
Activity (Staphylococcus aureus [28]): Time-dependent-effect
Activity (Escherichia coli [29]): Active
Activity (Staphylococcus aureus [30]): inactive
Activity (Escherichia coli [31]): inactive
Activity (Staphylococcus aureus [32]): Active
Activity (Escherichia coli [33]): Active
Activity (Escherichia coli [34]): Active
Activity (Cell membrane [35]): Active
Activity (Cell membrane [36]): Active
Activity (Escherichia coli [37]): Active
MIC (Staphylococcus aureus [38]): 8 µM (≈ 15.9 µg/mL)
Activity (Cell membrane [39]): Active
